Assay: Photostability test under continuous white light irradiation
Type: physicochemical
Conditions: 50 mW·cm^−2 white light, continuous irradiation 40 min
Method: (3) Photostability test of the nanoimaging agent Y6CT-NPs: commercial imaging agent indocyanine green (ICG) was selected as a reference. Y6CT-NPs and ICG were irradiated continuously by 50 mW·cm^−2 white light (laparoscopic LED cold light source) for 40 min, and the fluorescence intensity of the two were recorded at different time points, a ratio of which to the initial fluorescence intensity was calculated to compare the attenuation degree of fluorescence intensity and photostability between the two.

## CC1(C)C(/C=C/C=C/C=C/C=C2\N(CCCCS(=O)(=O)O)c3ccc4ccccc4c3C2(C)C)=[N+](CCCCS(=O)(=O)[O-])c2ccc3ccccc3c21 [ICG, indocyanine green]
  change of fluorescence intensity after continuous irradiation: decreases significantly
  fluorescence intensity at 40 min relative to the initial fluorescence intensity: 30%

Source: patent US20250235562A1, “USE OF SECOND NEAR-INFRARED ORGANIC FLUORESCENT COMPOUND IN PREPARATION OF BIOIMAGING CONTRAST AGENT AND IN VASCULAR FLUORESCENCE IMAGING” (INNER MONGOLIA UNIVERSITY, priority 2024, published 2025)
